According to the NIST ThermoML archive (doi:10.1016/j.jct.2017.07.004):

Test: xn = mol fraction of the nth substance listed
Settings: 100 kPa, Liquid; for viscosity: Concentric cylinders viscometry; for mass density: Vibrating tube method

CCC=O [propanal] + CCC(C)O
Settings	mass density [kg/m3]	viscosity [mPa·s]
293.15 K, x1 = 0.0811	810.5	3.49
293.15 K, x1 = 0.16	813.1	3.29
293.15 K, x1 = 0.24	815.1	3.06
293.15 K, x1 = 0.35	817	2.72
293.15 K, x1 = 0.44	817.8	2.42
293.15 K, x1 = 0.56	817.7	2
293.15 K, x1 = 0.6499	816.7	1.67
293.15 K, x1 = 0.7401	814.7	1.34
293.15 K, x1 = 0.8501	810.8	0.92
293.15 K, x1 = 0.9401	806.5	0.58
293.15 K, x1 = 1	802.4	0.34
298.15 K, x1 = 0.0811	806	2.89
298.15 K, x1 = 0.16	808.4	2.73
298.15 K, x1 = 0.24	810.3	2.55
298.15 K, x1 = 0.35	811.8	2.27
298.15 K, x1 = 0.44	812.3	2.03
298.15 K, x1 = 0.56	811.8	1.68
298.15 K, x1 = 0.6499	810.5	1.41
298.15 K, x1 = 0.7401	808.4	1.14
298.15 K, x1 = 0.8501	804.5	0.8
298.15 K, x1 = 0.9401	800	0.52
298.15 K, x1 = 1	796.2	0.33
303.15 K, x1 = 0.0811	801.1	2.41
303.15 K, x1 = 0.16	803.2	2.27
303.15 K, x1 = 0.24	804.8	2.12
303.15 K, x1 = 0.35	806	1.89
303.15 K, x1 = 0.44	806.5	1.69
303.15 K, x1 = 0.56	805.7	1.41
303.15 K, x1 = 0.6499	804.3	1.19
303.15 K, x1 = 0.7401	802	0.97
303.15 K, x1 = 0.8501	798	0.69
303.15 K, x1 = 0.9401	794	0.46
303.15 K, x1 = 1	790.3	0.31
308.15 K, x1 = 0.0811	796.4	2.02
308.15 K, x1 = 0.16	798	1.9
308.15 K, x1 = 0.24	799.4	1.77
308.15 K, x1 = 0.35	800.3	1.58
308.15 K, x1 = 0.44	800.4	1.41
308.15 K, x1 = 0.56	799.5	1.18
308.15 K, x1 = 0.6499	798.1	1.01
308.15 K, x1 = 0.7401	795.9	0.82
308.15 K, x1 = 0.8501	791.8	0.6
308.15 K, x1 = 0.9401	788	0.42
308.15 K, x1 = 1	784.5	0.3
313.15 K, x1 = 0.0811	791.7	1.71
313.15 K, x1 = 0.16	793	1.61
313.15 K, x1 = 0.24	794	1.5
313.15 K, x1 = 0.35	794.6	1.34
313.15 K, x1 = 0.44	794.6	1.2
313.15 K, x1 = 0.56	793.5	1.01
313.15 K, x1 = 0.6499	792	0.86
313.15 K, x1 = 0.7401	789.8	0.72
313.15 K, x1 = 0.8501	786	0.53
313.15 K, x1 = 0.9401	782.4	0.38
313.15 K, x1 = 1	779	0.28
318.15 K, x1 = 0.0811	786.8	1.45
318.15 K, x1 = 0.16	787.9	1.36
318.15 K, x1 = 0.24	788.6	1.27
318.15 K, x1 = 0.35	789.1	1.13
318.15 K, x1 = 0.44	788.8	1.02
318.15 K, x1 = 0.56	787.6	0.86
318.15 K, x1 = 0.6499	786.1	0.74
318.15 K, x1 = 0.7401	783.8	0.62
318.15 K, x1 = 0.8501	780	0.47
318.15 K, x1 = 0.9401	776.5	0.35
318.15 K, x1 = 1	773.5	0.27
323.15 K, x1 = 0.0811	781.9	1.25
323.15 K, x1 = 0.16	782.6	1.17
323.15 K, x1 = 0.24	783.1	1.09
323.15 K, x1 = 0.35	783.2	0.97
323.15 K, x1 = 0.44	782.8	0.87
323.15 K, x1 = 0.56	781.5	0.74
323.15 K, x1 = 0.6499	779.8	0.64
323.15 K, x1 = 0.7401	777.7	0.54
323.15 K, x1 = 0.8501	774.3	0.42
323.15 K, x1 = 0.9401	770.9	0.32
323.15 K, x1 = 1	768.2	0.25
